This passage reports IC50 results from PubChem BioAssay AID463182 (University of Pittsburgh Molecular Library Screening Center, 2010).

Active and inactive are the calls of the source. No rule for the calls is given here.

Chain of Furin (Homo sapiens) (P09958 108-714 limits assumed): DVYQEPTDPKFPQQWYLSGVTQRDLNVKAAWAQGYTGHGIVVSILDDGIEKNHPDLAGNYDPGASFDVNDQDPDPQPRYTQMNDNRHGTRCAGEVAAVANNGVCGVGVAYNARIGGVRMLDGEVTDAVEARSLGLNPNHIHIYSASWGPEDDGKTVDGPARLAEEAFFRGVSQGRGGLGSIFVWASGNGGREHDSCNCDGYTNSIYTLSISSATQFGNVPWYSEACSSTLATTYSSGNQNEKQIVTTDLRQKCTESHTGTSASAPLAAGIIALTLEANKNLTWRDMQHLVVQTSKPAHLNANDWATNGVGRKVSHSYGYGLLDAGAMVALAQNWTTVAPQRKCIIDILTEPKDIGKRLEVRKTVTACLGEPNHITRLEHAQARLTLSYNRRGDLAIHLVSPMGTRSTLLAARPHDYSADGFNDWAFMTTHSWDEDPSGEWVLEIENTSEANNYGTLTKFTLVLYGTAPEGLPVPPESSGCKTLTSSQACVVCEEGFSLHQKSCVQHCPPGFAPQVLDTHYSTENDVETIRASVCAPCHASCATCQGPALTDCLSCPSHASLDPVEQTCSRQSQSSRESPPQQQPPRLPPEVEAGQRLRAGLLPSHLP

The experiment concerns the target Furin (Homo sapiens) (UniProt P09958). Description: furin inhibitor potency, dose response, biochemical, fluorescence intensity, IC50 (AID 463182). As to conditions: purified furin, fluorogenic peptide substrate cleavage.
As to `CC1(C)CC(=O)C(/C=N/n2cnc3ccccc3c2=O)=C(O)C1`, the IC50 is > 50 µM (inactive).
As for `CC1(C)CC(=O)C(C=Nc2cccnc2)=C(O)C1`, the IC50 is > 50 µM (inactive).
In the case of `Cc1cccc(/N=C/C2=C(O)CC(C)(C)CC2=O)n1` it was > 50 µM (inactive).
